This data set is described as follows: Solubilisation of resveratrol in the self emulsifying cosmetic base (mixing at 30-40° C.). The class given is physicochemical. The conditions noted are these: Example 2, no co-emulsifier, continuous mixing at 30-40° C. As for the experimental part: A self emulsifying cosmetic base exempt of co-emulsifier was prepared by dissolving resveratrol in trilaureth-4 phosphate by continuous mixing at moderate temperature (30-40° C.). […] In all cases spontaneously an aqueous emulsion was formed which upon separation (after >1 week) could be easily re-formed by mere shaking.

As to `Oc1ccc(/C=C/c2cc(O)cc(O)c2)cc1` [resveratrol], the “appearance after dissolving resveratrol in trilaureth-4 phosphate” value was “clear solution”.

Source of the values: US9283161B2, “Aqueous cosmetic compositions containing resveratrol solubilized in a liquid phosphate ester surfactant” (DSM IP ASSETS B.V., priority 2011, dated 2016).
